We go through one molecule from patent publication US11921116B2, “Enigma and CDH18 as companion diagnostics for CDK4 inhibitors” (Memorial Sloan Kettering Cancer Center, priority 2016, dated 2024).

Entries after “also recorded” stand apart in the source; their conditions may differ.

What all share (format): cell-based
The test system of test [1] is MDM2 protein levels in LS8107 cells. The test is described as follows: MDM2 protein levels in LS8107 cells after CDK4 inhibition. From the text: The short hairpins used are as follows: TRCN0000161061: […] (SEQ ID NO: 4); and TRCN0000166638 (“EN638”): […] (SEQ ID NO: 5).
In test [2] the test system is MDM2 turnover in LS8107 cells. The test is described as follows: Turnover (degradation) of MDM2 in LS8107 cells after CDK4 inhibition. The conditions noted are these: LS8107 cells with knockdown of Enigma, addition of PD0332991. The procedure: To determine if Enigma affects MDM2 protein levels post-translationally, the turnover of MDM2 was analyzed. […] To determine whether HAUSP and Enigma are the important regulators of MDM2 protein levels in response to treatment with a CDK4 inhibitor, concomitant knockdown of HAUSP and Enigma was performed.

For test [3], the system named is non-responder cell line LS8107. The experiment in a line: Senescence of LS8107 cells after CDK4 inhibition (SA-β-gal positive cells, ATRX foci).
The mark [4] stands for this setting: LS8107 cells with Enigma knocked down (shRNA), treated with PD0332991.
Setting [5] is: non-responder LS8107 cells, PD0332991 alone (no knockdown).

Consider `CC(=O)c1c(C)c2cnc(Nc3ccc(N4CCNCC4)cn3)nc2n(C2CCCC2)c1=O` [PD0332991], for which the values for the MDM2 protein levels entry in test [1] (setting [4]) and in test [1] (setting [5]) were “reduction in MDM2 protein levels” and “do not reduce their MDM2 protein levels”, respectively. Besides, the “turnover of MDM2” value in test [2] was “increased the turnover of MDM2”. Moreover, the senescence result in test [3] (setting [4]) is given as “the cells entered senescence”. For the same molecule, the “senescence as determined by the number of SA-β-gal positive cells” value in test [3] (setting [5]) was “do not undergo senescence; also recorded: insufficient to induce senescence”.
